From ChEMBL document CHEMBL4311992, “Discovery of 3-(((9H-purin-6-yl)amino)methyl)-4,6-dimethylpyridin-2(1H)-one derivatives as novel tubulin polymerization inhibitors for treatment of cancer” (Eur J Med Chem, 2019)

What was measured:
HCT-15 = assay: Antiproliferative activity against human HCT15 cells assessed as reduction in cell viability after 72 hrs by MTT assay; format: functional, cell-based; details: HCT-15, 72 h
DLD-1 = assay: Antiproliferative activity against human DLD1 cells assessed as reduction in cell viability after 72 hrs by MTT assay; format: functional, cell-based; details: DLD-1, 72 h
[1] = target: Protein kinase C beta type (Homo sapiens) (UniProt P05771); assay: Inhibition of recombinant human PKCbeta2 (2 to end residues) assessed as residual activity at 10 uM using histone H1 as substrate measured after 40 mins in presence of [gamma33P]ATP by scintillation counting method
[2] = target: Serine/threonine-protein kinase Nek7 (Homo sapiens) (UniProt Q8TDX7); assay: Inhibition of recombinant human NEK7 (2 to end residues) assessed as residual activity at 10 uM using FLAKSFGSPNRAYKK as substrate measured after 40 mins in presence of [gamma33P]ATP by scintillation counting method
[3] = target: Interleukin-1 receptor-associated kinase 1 (Homo sapiens) (UniProt P51617); assay: Inhibition of recombinant human IRAK1 (194 to end residues) assessed as residual activity at 10 uM using myelin basic protein as substrate measured after 40 mins in presence of [gamma33P]ATP by scintillation counting method
[4] = target: Cyclin-dependent kinase-like 3 (Homo sapiens) (UniProt Q8IVW4); assay: Inhibition of recombinant human full-length CDKL3 (1 to 303 residues) assessed as residual activity at 10 uM using RRRFRPASPLRGP as substrate measured after 120 mins in presence of [gamma33P]ATP by scintillation counting method
[5] = target: Transient receptor potential cation channel subfamily M member 7 (Homo sapiens) (UniProt Q96QT4); assay: Inhibition of recombinant human CHAK1 (1180 to end residues) assessed as residual activity at 10 uM using myelin basic protein as substrate measured after 40 mins in presence of [gamma33P]ATP by scintillation counting method
[6] = target: Tau-tubulin kinase 1 (Homo sapiens) (UniProt Q5TCY1); assay: Inhibition of human TTBK1 (1 to 479 residues) using Casein as substrate measured after 40 mins in presence of [gamma33P]ATP by scintillation counting method; design: scale not given: the % may be the effect or the level left
[7] = target: Tyrosine-protein kinase BTK (Homo sapiens) (UniProt Q06187); assay: Inhibition of full-length recombinant human BTK assessed as residual activity at 10 uM using KVEKIGEGTYGVVYK as substrate measured after 40 mins in presence of [gamma33P]ATP by scintillation counting method
[8] = target: Insulin-like growth factor 1 receptor (Homo sapiens) (UniProt P08069); assay: Inhibition of recombinant human activated IGF1R (959 to end residues) assessed as residual activity at 10 uM using KKKSPGEYVNIEFG as substrate measured after 40 mins in presence of [gamma33P]ATP by scintillation counting method
[9] = target: Tyrosine-protein kinase Fes/Fps (Homo sapiens) (UniProt P07332); assay: Inhibition of recombinant human FES (2 to end residues) assessed as residual activity at 10 uM using poly(Glu, Tyr) 4:1 as substrate measured after 40 mins in presence of [gamma33P]ATP by scintillation counting method
[10] = target: Death-associated protein kinase 2 (Homo sapiens) (UniProt Q9UIK4); assay: Inhibition of recombinant full-length human DAPK2 assessed as residual activity at 10 uM using calmodulin as substrate measured after 40 mins in presence of [gamma33P]ATP by scintillation counting method
[11] = target: Serine/threonine-protein kinase 17A (Homo sapiens) (UniProt Q9UEE5); assay: Inhibition of recombinant full-length human DRAK1 assessed as residual activity at 10 uM using KKLNRTLSFAEPG as substrate measured after 40 mins in presence of [gamma33P]ATP by scintillation counting method
[12] = target: Serine/threonine-protein kinase 24 (Homo sapiens) (UniProt Q9Y6E0); assay: Inhibition of recombinant human MST3 (1 to 304 residues) assessed as residual activity at 10 uM using ERMRPRKRQGSVRRRV as substrate measured after 40 mins in presence of [gamma33P]ATP by scintillation counting method
[13] = target: Serine/threonine-protein kinase PAK 5 (Homo sapiens) (UniProt Q9P286); assay: Inhibition of recombinant human PAK5 (425 to end residues) assessed as residual activity at 10 uM using RRRLSFAEPG as substrate measured after 40 mins in presence of [gamma33P]ATP by scintillation counting method
[14] = target: cAMP-dependent protein kinase catalytic subunit alpha (Homo sapiens) (UniProt P17612); assay: Inhibition of recombinant full-length human PKA assessed as residual activity at 10 uM using Kemptide as substrate measured after 40 mins in presence of [gamma33P]ATP by scintillation counting method
[15] = target: Tyrosine-protein kinase SYK (Homo sapiens) (UniProt P43405); assay: Inhibition of recombinant full-length human Syk assessed as residual activity at 10 uM using poly(Glu, Tyr) 4:1 as substrate measured after 120 mins in presence of [gamma33P]ATP by scintillation counting method
[16] = test system: Serine/threonine-protein kinase TAO3 (Homo sapiens), Q9H2K8 [UNDEFINED MUTATION]; assay: Inhibition of human TAO3 (1 to 411 residues) using myelin basic protein as substrate measured after 40 mins in presence of [gamma33P]ATP by scintillation counting method; design: scale not given: the % may be the effect or the level left
[17] = target: Tyrosine-protein kinase Yes (Homo sapiens) (UniProt P07947); assay: Inhibition of recombinant full-length human Yes assessed as residual activity at 10 uM using poly(Glu, Tyr) 4:1 as substrate measured after 40 mins in presence of [gamma33P]ATP by scintillation counting method
[18] = target: PI3-kinase p110-alpha/p85-alpha (Homo sapiens) (UniProt P27986+P42336); assay: Inhibition of recombinant full-length human PI3K p110alpha/p85alpha assessed as residual activity at 10 uM using phosphatidylinositol-4, 5-bisphosphate as substrate measured after 40 mins by fluorescence assay; format: protein-complex assay
[19] = test system: PI3-kinase p110-alpha/p85-alpha (Homo sapiens), P27986+P42336 [E542K]; assay: Inhibition of recombinant full-length human PI3K p110alpha/p85alpha E542K mutant assessed as residual activity at 10 uM using phosphatidylinositol-4, 5-bisphosphate as substrate measured after 40 mins by fluorescence assay; format: protein-complex assay
[20] = target: Phosphatidylinositol 5-phosphate 4-kinase type-2 alpha (Homo sapiens) (UniProt P48426); assay: Inhibition of recombinant full-length human PIP4K2alpha assessed as residual activity at 10 uM using phosphatidylinositol 5-phosphate as substrate measured after 40 mins by HTRF assay
[21] = Toxicity in nude BALB/c mouse assessed as change in uric acid level at 40 to 80 mg/kg, po once daily for 4 weeks measured post-last dose; format: organism-based; details: in vivo, 672 h
SW-620 = assay: Induction of apoptosis in human SW620 cells assessed as late apoptotic cells at 100 nM measured after 48 hrs by Annexin V-FITC/propidium iodide staining-based flow cytometry (reference value: 1.8%); format: functional
HCT-116 = assay: cells; details: Homo sapiens, HCT-116, 72 h
Description: Antiproliferative activity against human HCT116 cells after 72 hrs by MTT assay

Transient receptor potential cation channel subfamily M member 7 (Homo sapiens), sequence (Q96QT4 whole entry, the tested form may be a part): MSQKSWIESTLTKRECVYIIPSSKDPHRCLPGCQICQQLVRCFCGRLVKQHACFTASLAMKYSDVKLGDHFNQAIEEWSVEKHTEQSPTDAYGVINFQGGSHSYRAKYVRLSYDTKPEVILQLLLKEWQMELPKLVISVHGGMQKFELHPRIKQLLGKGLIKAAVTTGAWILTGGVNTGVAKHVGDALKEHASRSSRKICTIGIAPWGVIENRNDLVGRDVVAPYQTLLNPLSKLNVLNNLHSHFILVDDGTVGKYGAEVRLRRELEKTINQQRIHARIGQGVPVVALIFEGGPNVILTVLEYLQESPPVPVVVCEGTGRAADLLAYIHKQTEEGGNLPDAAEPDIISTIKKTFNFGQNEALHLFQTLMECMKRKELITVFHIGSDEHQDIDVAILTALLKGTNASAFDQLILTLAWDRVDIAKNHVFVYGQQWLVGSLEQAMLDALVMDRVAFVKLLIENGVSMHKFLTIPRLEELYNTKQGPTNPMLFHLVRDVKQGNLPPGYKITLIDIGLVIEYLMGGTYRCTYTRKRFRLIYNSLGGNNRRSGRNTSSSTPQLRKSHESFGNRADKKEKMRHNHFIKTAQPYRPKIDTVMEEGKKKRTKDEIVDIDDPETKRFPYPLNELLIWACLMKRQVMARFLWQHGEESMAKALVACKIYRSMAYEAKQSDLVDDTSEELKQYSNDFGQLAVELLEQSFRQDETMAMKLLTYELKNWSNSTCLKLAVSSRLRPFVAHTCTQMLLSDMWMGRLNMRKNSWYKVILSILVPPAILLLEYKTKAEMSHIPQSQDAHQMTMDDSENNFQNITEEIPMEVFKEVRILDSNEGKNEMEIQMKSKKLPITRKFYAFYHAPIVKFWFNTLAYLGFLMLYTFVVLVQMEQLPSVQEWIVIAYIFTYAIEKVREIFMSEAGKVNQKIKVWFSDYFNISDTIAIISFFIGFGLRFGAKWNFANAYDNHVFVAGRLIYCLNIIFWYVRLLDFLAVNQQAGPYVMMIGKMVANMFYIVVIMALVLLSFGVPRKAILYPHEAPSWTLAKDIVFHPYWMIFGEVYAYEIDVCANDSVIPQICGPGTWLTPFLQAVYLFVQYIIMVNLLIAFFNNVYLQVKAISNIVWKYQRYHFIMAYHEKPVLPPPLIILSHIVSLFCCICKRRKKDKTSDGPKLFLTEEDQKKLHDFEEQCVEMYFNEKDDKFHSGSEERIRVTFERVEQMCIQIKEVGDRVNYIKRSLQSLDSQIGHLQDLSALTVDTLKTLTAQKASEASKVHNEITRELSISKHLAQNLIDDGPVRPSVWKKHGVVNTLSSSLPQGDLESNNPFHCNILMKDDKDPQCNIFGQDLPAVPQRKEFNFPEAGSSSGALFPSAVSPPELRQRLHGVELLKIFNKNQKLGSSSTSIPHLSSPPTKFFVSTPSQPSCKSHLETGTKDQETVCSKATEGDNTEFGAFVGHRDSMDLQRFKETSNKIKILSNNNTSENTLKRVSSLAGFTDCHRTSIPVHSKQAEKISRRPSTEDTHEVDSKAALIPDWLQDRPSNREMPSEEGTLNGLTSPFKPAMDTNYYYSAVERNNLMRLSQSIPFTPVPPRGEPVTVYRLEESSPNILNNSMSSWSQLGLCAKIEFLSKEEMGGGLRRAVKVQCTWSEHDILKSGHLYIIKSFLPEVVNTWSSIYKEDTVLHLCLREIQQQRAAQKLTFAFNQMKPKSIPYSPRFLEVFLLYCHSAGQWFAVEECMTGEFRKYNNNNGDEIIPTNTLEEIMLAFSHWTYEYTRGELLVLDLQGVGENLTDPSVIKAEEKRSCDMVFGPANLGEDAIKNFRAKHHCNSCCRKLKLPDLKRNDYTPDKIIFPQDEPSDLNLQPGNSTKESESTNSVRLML
Tyrosine-protein kinase Fes/Fps (Homo sapiens), sequence (P07332 whole entry): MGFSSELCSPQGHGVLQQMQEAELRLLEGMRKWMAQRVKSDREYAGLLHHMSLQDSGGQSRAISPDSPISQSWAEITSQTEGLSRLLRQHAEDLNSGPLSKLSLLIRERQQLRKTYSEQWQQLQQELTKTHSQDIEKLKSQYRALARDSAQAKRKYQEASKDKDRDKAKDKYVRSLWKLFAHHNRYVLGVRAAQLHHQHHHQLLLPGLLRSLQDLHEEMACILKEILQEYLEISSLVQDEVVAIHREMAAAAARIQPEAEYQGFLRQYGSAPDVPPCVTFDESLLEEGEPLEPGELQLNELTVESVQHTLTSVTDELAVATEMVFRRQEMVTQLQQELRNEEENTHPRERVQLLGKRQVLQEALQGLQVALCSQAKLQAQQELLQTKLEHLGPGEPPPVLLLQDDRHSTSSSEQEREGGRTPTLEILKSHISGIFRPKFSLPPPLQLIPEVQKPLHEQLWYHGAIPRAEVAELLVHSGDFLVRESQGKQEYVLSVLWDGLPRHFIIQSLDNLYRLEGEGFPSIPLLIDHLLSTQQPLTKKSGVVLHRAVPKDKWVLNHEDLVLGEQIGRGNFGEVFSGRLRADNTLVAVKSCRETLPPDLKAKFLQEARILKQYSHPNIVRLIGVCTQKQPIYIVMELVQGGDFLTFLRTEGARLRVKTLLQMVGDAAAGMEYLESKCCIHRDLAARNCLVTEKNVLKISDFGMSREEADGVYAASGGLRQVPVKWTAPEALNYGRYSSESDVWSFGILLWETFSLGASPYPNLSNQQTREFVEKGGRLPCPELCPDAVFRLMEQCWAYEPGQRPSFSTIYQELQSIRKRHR
Phosphatidylinositol 5-phosphate 4-kinase type-2 alpha (Homo sapiens), sequence (P48426 whole entry): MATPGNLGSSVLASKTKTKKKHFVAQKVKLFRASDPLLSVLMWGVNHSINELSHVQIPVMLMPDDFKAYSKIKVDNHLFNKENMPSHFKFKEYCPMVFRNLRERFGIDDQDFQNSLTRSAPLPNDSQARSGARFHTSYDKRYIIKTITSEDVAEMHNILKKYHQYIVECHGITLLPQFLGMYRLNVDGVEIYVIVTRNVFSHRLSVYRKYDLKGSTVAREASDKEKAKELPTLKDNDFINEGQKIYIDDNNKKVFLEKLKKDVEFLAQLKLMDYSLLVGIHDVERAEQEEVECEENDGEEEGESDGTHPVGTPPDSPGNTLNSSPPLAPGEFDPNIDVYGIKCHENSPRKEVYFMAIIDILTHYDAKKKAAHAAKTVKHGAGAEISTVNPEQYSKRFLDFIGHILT
Insulin-like growth factor 1 receptor (Homo sapiens), sequence (P08069 31-736 limits assumed): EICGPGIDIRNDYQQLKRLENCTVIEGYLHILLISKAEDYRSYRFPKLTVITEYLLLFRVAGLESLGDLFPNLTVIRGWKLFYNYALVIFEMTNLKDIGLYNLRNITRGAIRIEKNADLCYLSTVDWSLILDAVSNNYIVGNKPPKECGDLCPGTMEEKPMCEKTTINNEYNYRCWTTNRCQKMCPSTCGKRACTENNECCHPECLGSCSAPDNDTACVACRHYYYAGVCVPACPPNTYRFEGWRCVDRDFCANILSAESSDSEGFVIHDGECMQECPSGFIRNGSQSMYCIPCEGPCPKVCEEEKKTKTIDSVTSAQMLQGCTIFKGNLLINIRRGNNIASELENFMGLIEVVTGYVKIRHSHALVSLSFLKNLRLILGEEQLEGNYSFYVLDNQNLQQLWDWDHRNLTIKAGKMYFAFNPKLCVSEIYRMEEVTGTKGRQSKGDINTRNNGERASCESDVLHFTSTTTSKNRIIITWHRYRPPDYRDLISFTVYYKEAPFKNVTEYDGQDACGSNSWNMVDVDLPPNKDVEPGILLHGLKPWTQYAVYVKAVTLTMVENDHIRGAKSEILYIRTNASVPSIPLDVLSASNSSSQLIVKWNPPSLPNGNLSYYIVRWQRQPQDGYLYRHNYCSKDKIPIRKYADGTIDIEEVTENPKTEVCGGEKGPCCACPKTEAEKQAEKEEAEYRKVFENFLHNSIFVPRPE
Insulin-like growth factor 1 receptor (Homo sapiens), sequence (P08069 741-1367 limits assumed): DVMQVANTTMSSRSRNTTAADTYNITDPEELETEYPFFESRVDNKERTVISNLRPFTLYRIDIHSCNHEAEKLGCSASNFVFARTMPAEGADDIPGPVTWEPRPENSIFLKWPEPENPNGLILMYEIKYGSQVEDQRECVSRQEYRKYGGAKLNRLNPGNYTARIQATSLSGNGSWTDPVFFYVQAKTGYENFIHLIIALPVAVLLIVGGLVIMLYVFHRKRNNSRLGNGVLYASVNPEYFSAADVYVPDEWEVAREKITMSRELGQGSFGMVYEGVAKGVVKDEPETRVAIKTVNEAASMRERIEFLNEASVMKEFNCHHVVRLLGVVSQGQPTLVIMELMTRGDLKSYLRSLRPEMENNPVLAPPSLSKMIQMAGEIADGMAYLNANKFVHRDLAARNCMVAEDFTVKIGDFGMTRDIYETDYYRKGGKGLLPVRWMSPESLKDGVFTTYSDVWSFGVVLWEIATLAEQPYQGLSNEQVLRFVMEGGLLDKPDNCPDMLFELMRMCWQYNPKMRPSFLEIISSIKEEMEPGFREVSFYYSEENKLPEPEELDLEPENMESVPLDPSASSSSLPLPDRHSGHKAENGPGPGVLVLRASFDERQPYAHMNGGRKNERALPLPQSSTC
Serine/threonine-protein kinase 17A (Homo sapiens), sequence (Q9UEE5 whole entry, the tested form may be a part): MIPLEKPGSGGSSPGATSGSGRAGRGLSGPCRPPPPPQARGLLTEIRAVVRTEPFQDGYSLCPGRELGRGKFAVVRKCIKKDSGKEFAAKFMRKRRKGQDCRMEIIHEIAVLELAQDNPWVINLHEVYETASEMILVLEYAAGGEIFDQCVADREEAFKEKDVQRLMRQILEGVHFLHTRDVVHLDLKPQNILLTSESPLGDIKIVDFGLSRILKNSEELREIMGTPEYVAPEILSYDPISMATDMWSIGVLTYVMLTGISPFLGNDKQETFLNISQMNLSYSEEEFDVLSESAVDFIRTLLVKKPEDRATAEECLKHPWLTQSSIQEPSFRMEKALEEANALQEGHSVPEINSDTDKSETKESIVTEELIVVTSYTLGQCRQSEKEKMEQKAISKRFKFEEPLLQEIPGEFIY

SMILES: Cc1cc(C)c(CNc2nc(Cl)nc3c2ncn3C2CCCC2)c(=O)[nH]1
- IC50 (HCT-15): 61 nM
- IC50 (DLD-1): 136 nM
- Activity [1]: 106%
- Activity [2]: 106%
- Activity [3]: 102%
- Activity [4]: 126%
- Activity [5]: 108%
- Activity [6]: 102%
- Activity [7]: 85%
- Activity [8]: 90.5%
- Activity [9]: 100%
- Activity [10]: 97%
- Activity [11]: 91.5%
- Activity [12]: 110%
- Activity [13]: 110%
- Activity [14]: 91%
- Activity [15]: 123%
- Activity [16]: 97%
- Activity [17]: 79%
- Activity [18]: 99.5%
- Activity [19]: 97.5%
- Activity [20]: 108%
- Activity [21]: Non-Toxic
- Activity (SW-620): 23.1%
- IC50 (HCT-116): 60 nM
